Results from ChEMBL document CHEMBL1201862, “PubChem BioAssay data set” (2004).
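Protocol summary: plate cells (96-well), add compound at 5 concentrations, incubate 48 h, interpolate endpoints linearly. Abbreviation: GI50, concentration required for 50% inhibition of growth.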 Active and inactive are the calls of the source. Cut-off read from the data, not from the text of the source: active = GI50 up to about 1.1 µM and inactive = higher.

What was measured:
Test in all cases: DTP human tumour cell line panel, 48 h
NCI-H226 = test system: NCI-H226
IGROV-1 = test system: IGROV-1
Hs-578T = test system: Hs-578T
NCI-H460 = test system: NCI-H460
KM12 = test system: KM12
HCT-15 = test system: HCT-15
NCI-H522 = test system: NCI-H522
HL-60 = test system: HL-60
NCI/ADR-RES = test system: NCI/ADR-RES
OVCAR-5 = test system: OVCAR-5
SW-620 = test system: SW-620
U-251 = test system: U-251
DU-145 = test system: DU-145
K562 = test system: K562
HOP-62 = test system: HOP-62
SR = test system: SR
BT-549 = test system: BT-549
T47D = test system: T47D
RPMI-8226 = test system: RPMI-8226
UACC-62 = test system: UACC-62
PC-3 = test system: PC-3
LOX IMVI = test system: LOX IMVI
COLO 205 = test system: COLO 205
MDA-MB-231 = test system: MDA-MB-231
TK-10 = test system: TK-10
CCRF-CEM = test system: CCRF-CEM
MCF7 = test system: MCF7
A498 = test system: A498
SK-OV-3 = test system: SK-OV-3
ACHN = test system: ACHN
Malme-3M = test system: Malme-3M
M14 = test system: M14
SK-MEL-28 = test system: SK-MEL-28
SK-MEL-5 = test system: SK-MEL-5
HCT-116 = test system: HCT-116
UO-31 = test system: UO-31
OVCAR-3 = test system: OVCAR-3
SF-268 = test system: SF-268
EKVX = test system: EKVX
SNB-19 = test system: SNB-19
MOLT-4 = test system: MOLT-4
SF-539 = test system: SF-539
SF-295 = test system: SF-295
SN12C = test system: SN12C
RXF 393 = test system: RXF 393
786-0 = test system: 786-0
SNB-75 = test system: SNB-75
OVCAR-4 = test system: OVCAR-4
OVCAR-8 = test system: OVCAR-8
MDA-MB-435 = test system: MDA-MB-435
NCI-H23 = test system: NCI-H23
HCC 2998 = test system: HCC 2998
HT-29 = test system: HT-29
SK-MEL-2 = test system: SK-MEL-2
UACC-257 = test system: UACC-257
A549 = test system: A549
CAKI-1 = test system: CAKI-1
MDA-N = test system: MDA-N

CN(C)CCn1c(=O)c2ccc(NCCCN(C)CCCNc3ccc4c(=O)n(CCN(C)C)c(=O)n5c6ccccc6c(=O)c3c45)c3c(=O)c4ccccc4n(c1=O)c23
GI50 (NCI-H226): < 0.01 µM (active)
GI50 (IGROV-1): < 0.01 µM (active)
GI50 (Hs-578T): 0.131 µM (active)
GI50 (NCI-H460): < 0.01 µM (active)
GI50 (KM12): < 0.01 µM (active)
GI50 (HCT-15): < 0.01 µM
GI50 (NCI-H522): < 0.01 µM (active)
GI50 (HL-60): < 0.01 µM (active)
GI50 (NCI/ADR-RES): 0.0339 µM (active)
GI50 (OVCAR-5): 0.145 µM (active)
GI50 (SW-620): < 0.01 µM (active)
GI50 (U-251): < 0.01 µM (active)
GI50 (DU-145): < 0.01 µM (active)
GI50 (K562): < 0.01 µM (active)
GI50 (HOP-62): < 0.0161 µM (active)
GI50 (SR): < 0.01 µM (active)
GI50 (BT-549): 0.117 µM (active)
GI50 (T47D): 0.54 µM (active)
GI50 (RPMI-8226): < 0.01 µM (active)
GI50 (UACC-62): 0.151 µM (active)
GI50 (PC-3): < 0.01 µM (active)
GI50 (LOX IMVI): < 0.01 µM (active)
GI50 (COLO 205): < 0.01 µM (active)
GI50 (MDA-MB-231): < 0.0405 µM (active)
GI50 (TK-10): 0.0593 µM (active)
GI50 (CCRF-CEM): < 0.01 µM (active)
GI50 (MCF7): < 0.01 µM (active)
GI50 (A498): 0.0571 µM (active)
GI50 (SK-OV-3): 0.101 µM (active)
GI50 (ACHN): < 0.01 µM (active)
GI50 (Malme-3M): 0.361 µM (active)
GI50 (M14): 0.167 µM (active)
GI50 (SK-MEL-28): 0.165 µM (active)
GI50 (SK-MEL-5): < 0.0106 µM (active)
GI50 (HCT-116): < 0.01 µM (active)
GI50 (UO-31): < 0.0285 µM (active)
GI50 (OVCAR-3): 0.0778 µM (active)
GI50 (SF-268): 0.258 µM (active)
GI50 (EKVX): 0.051 µM (active)
GI50 (SNB-19): < 0.01 µM (active)
GI50 (MOLT-4): < 0.01 µM (active)
GI50 (SF-539): < 0.01 µM (active)
GI50 (SF-295): < 0.01 µM (active)
GI50 (SN12C): < 0.01 µM (active)
GI50 (RXF 393): < 0.0149 µM (active)
GI50 (786-0): < 0.01 µM (active)
GI50 (SNB-75): < 0.0117 µM (active)
GI50 (OVCAR-4): < 0.01 µM (active)
GI50 (OVCAR-8): < 0.01 µM (active)
GI50 (MDA-MB-435): < 0.0151 µM (active)
GI50 (NCI-H23): < 0.01 µM (active)
GI50 (HCC 2998): < 0.0115 µM (active)
GI50 (HT-29): < 0.01 µM (active)
GI50 (SK-MEL-2): 0.107 µM (active)
GI50 (UACC-257): 0.208 µM (active)
GI50 (A549): < 0.01 µM (active)
GI50 (CAKI-1): 0.0172 µM (active)

CC(=O)OC[C@]12CCC3[C@@]4(C)CCCC(C)(C)C4CC[C@@]3(C)C1CC(C1=CC(=O)OC1O)O2 (some centres not stated)
GI50 (IGROV-1): 1.19 µM (inactive)
GI50 (KM12): 1.68 µM (inactive)
GI50 (HCT-15): 0.516 µM
GI50 (HL-60): 0.428 µM (active)
GI50 (SW-620): 0.375 µM (active)
GI50 (DU-145): 4.07 µM (inactive)
GI50 (K562): 0.425 µM (active)
GI50 (HOP-62): 1.9 µM (inactive)
GI50 (SR): 0.259 µM (active)
GI50 (T47D): 1.32 µM (inactive)
GI50 (RPMI-8226): 0.275 µM (active)
GI50 (UACC-62): 1.53 µM (inactive)
GI50 (PC-3): 1.32 µM (inactive)
GI50 (COLO 205): 2.25 µM (inactive)
GI50 (MDA-MB-231): 1.26 µM (inactive)
GI50 (TK-10): 1.75 µM (inactive)
GI50 (CCRF-CEM): 0.271 µM (active)
GI50 (MCF7): 0.726 µM (active)
GI50 (SK-OV-3): 1.87 µM (inactive)
GI50 (M14): 1.5 µM (inactive)
GI50 (SK-MEL-28): 0.512 µM (active)
GI50 (SK-MEL-5): 1.44 µM (inactive)
GI50 (SF-268): 1.44 µM (inactive)
GI50 (EKVX): 2.44 µM (inactive)
GI50 (MOLT-4): 0.252 µM (active)
GI50 (RXF 393): 0.382 µM (active)
GI50 (786-0): 0.219 µM (active)
GI50 (SNB-75): 1.8 µM (inactive)
GI50 (OVCAR-8): 0.962 µM (active)
GI50 (NCI-H23): 1.39 µM (inactive)
GI50 (HCC 2998): 1.47 µM (inactive)
GI50 (MDA-N): 1.16 µM (inactive)
GI50 (HT-29): 0.692 µM (active)
GI50 (A549): 1.85 µM (inactive)
GI50 (CAKI-1): 1.72 µM (inactive)
